# According to patent publication US8822467B2 (Ligand Pharmaceuticals Inc., priority 2009, dated 2014):
# Biological target: T1, human CRTH2 (Homo sapiens, UniProt Q9Y5Y4)
# T1 construct: expressed in transfected cells
# T1 sequence (Q9Y5Y4 1-395): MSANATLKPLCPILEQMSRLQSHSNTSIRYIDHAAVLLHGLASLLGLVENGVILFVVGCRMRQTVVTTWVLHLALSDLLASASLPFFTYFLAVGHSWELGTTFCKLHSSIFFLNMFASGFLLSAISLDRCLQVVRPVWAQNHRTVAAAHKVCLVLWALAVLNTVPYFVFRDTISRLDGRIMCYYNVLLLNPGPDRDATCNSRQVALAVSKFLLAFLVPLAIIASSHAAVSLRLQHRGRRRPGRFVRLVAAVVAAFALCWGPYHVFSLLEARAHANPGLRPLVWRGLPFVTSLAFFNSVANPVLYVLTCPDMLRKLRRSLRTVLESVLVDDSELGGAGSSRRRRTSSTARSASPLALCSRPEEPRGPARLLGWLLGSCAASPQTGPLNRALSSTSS
# Assay: [35S]GTPγS binding assay (SPA) on membranes from CHO-K1 cells stably expressing human CRTH2, stimulated with 60 nM DHK-PGD2
# Format: biochemical
# Details: membranes of CHO-K1 cells expressing human CRTH2; 60 nM DHK-PGD2; Table 1; read-out: CRTH2 hGTPγS IC50
# How it was run: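 Read-out is scintillation proximity: bound [35S]GTPγS (500 pM, with 10 μM GDP) was counted 4 h after centrifuging a 2 h ambient-temperature incubation. Reactions held 4 μg human CRTH2 CHO-K1 membrane protein, 60 nM DHK-PGD2 agonist and test compounds at increasing concentrations. Buffer: 20 mM HEPES pH 7.4, 10 mM MgCl2, 300 mM NaCl, 0.2% BSA, 1% DMSO.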
row,IC50,SMILES
1,2.1 nM,"COc1cc(F)cc(-c2cc(CN(C)S(=O)(=O)c3ccc(F)c(F)c3)ccc2OCC(=O)O)c1 [Example 46, 2-(3-fluoro-5-methoxyphenyl)-4-((3,4-difluoro-N-methylphenylsulfonamido)methyl)phenoxyacetic acid]"
2,19 nM,"CN(Cc1ccc(OCC(=O)O)c(-c2ccc3nonc3c2)c1)S(=O)(=O)c1ccc(F)cc1 [Example 187, 2-(5-benzo[c][1,2,5]oxadiazolyl)-4-((4-fluoro-N-methylphenylsulfonamido)methyl)phenoxyacetic acid]"

# Same assay, conditions: potency class symbols; Table 2; read-out: CRTH2 hGTPγS IC50
row,SMILES,IC50
1,"COC(=O)c1cccc(-c2cc(CN(C)S(=O)(=O)c3ccc(F)cc3)ccc2OCC(=O)O)c1 [Example 141, 2-(3-methoxycarbonylphenyl)-4-((4-fluoro-N-methylphenylsulfonamido)methyl)phenoxyacetic acid]",100 to 1000 nM
2,"CN(Cc1ccc(OCC(=O)O)c(-c2cc(F)cc(F)c2)c1)S(=O)(=O)c1cccc(Cl)c1 [Example 68, 2-(3,5-difluorophenyl)-4-((3-chloro-N-methylphenylsulfonamido)methyl)phenoxyacetic acid]",< 100 nM
3,"COc1cc(F)cc(-c2cc(CN(C)S(=O)(=O)c3ccc(F)c(F)c3)ccc2OCC(=O)O)c1 [Example 46, 2-(3-fluoro-5-methoxyphenyl)-4-((3,4-difluoro-N-methylphenylsulfonamido)methyl)phenoxyacetic acid]",< 100 nM
4,"CCS(=O)(=O)c1cccc(-c2cc(CN(C)S(=O)(=O)c3ccc(F)cc3)ccc2OCC(=O)O)c1 [Example 83, 2-(3-ethylsulfonylphenyl)-4-((4-fluoro-N-methylphenylsulfonamido)methyl)phenoxyacetic acid]",< 100 nM
5,"Cc1cccc(-c2cc(CN(C)S(=O)(=O)c3ccc(F)cc3)ccc2OCC(=O)O)c1 [Example 156, 2-(3-methylphenyl)-4-((4-fluoro-N-methylphenylsulfonamido)methyl)phenoxyacetic acid]",1000 to 10000 nM
6,"CN(Cc1cc(-c2cccc(C#N)c2)c(OCC(=O)O)cc1F)S(=O)(=O)c1ccc(F)c(Cl)c1 [Example 43, 2-(3-cyanophenyl)-4-((3-chloro-4-fluoro-N-methylphenylsulfonamido)methyl)-5-fluorophenoxyacetic acid]",< 100 nM
7,"CN(Cc1ccc(OCC(=O)O)c(-c2ccc3nonc3c2)c1)S(=O)(=O)c1ccc(F)cc1 [Example 187, 2-(5-benzo[c][1,2,5]oxadiazolyl)-4-((4-fluoro-N-methylphenylsulfonamido)methyl)phenoxyacetic acid]",< 100 nM
8,"CN(Cc1ccc(OCC(=O)O)c(-c2cccc(S(C)(=O)=O)c2)c1)S(=O)(=O)c1ccc(F)c(F)c1 [Example 47, 2-(3-methylsulfonylphenyl)-4-((3,4-difluoro-N-methylphenylsulfonamido)methyl)phenoxyacetic acid]",< 100 nM

# Further lines, results first:
row,IC50,SMILES
1,100 to 1000 nM,"CN(Cc1ccc(OCC(=O)O)c(-c2cccc(C(F)(F)F)c2)c1)S(=O)(=O)c1ccccc1 [Example 131, 2-(3-trifluoromethylphenyl)-4-((N-methylphenylsulfonamido)methyl)phenoxyacetic acid]"
2,100 to 1000 nM,"CN(Cc1ccc(OCC(=O)O)c(-c2cccc(C(F)(F)F)c2)c1)S(=O)(=O)c1cc(F)cc(F)c1 [Example 137, 2-(3-trifluoromethylphenyl)-4-((3,5-difluoro-N-methylphenylsulfonamido)methyl)phenoxyacetic acid]"
3,1000 to 10000 nM,"CN(Cc1ccc(OCC(=O)O)c(-c2cccc(C(F)(F)F)c2)c1)S(=O)(=O)C1CC1 [Example 181, 2-(3-trifluoromethylphenyl)-4-((N-methylcyclopropanesulfonamido)methyl)phenoxyacetic acid]"
